The text below walks through data of publication PMC6934681, “Small molecule allosteric uncoupling of microtubule depolymerase activity from motility in human Kinesin-5 during mitotic spindle assembly” (Scientific Reports, 2019).

This assay addresses T1, Eg5 (human Kinesin-5) (Homo sapiens, UniProt P52732).
T1 construct: gene KIF11; motor domain (residues 1–369); with microtubules (bovine brain tubulin)
T1 sequence (P52732 1-369): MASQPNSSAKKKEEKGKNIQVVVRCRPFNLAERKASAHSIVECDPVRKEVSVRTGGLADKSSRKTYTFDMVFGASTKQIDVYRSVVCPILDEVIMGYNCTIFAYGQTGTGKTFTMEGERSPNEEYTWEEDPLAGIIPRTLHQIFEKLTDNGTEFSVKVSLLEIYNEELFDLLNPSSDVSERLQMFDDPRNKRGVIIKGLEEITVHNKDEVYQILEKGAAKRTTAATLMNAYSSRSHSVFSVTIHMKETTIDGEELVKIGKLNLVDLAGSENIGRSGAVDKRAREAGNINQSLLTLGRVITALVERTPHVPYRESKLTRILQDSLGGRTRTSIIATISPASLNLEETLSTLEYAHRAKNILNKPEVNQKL
The experiment in a line: microtubule depolymerization turbidity assay with purified Eg5 motor domain, single concentration […] AMPPNP. The assay is classed as biochemical.

Turning to `Nc1ncnc2c1ncn2[C@@H]1O[C@H](CO[P@](=O)(O)O[P@](=O)(O)NP(=O)(O)O)[C@@H](O)[C@H]1O` [AMP, AMPPNP], the “microtubule depolymerization turbidity assay with purified Eg5 motor domain, sin” value was “treatment with excess orthosteric inhibitor, AMPPNP, completely inhibited its microtubule depolymerization ability”.
